Key:
[1] = tested on: TGN46 (trans-Golgi network marker) in Hela cells; test: Immunostaining and confocal microscopy of Hela cells; assay type: cell-based, human; conditions: 50 μM
BRAG2 (BRAG2^Sec7PH) = molecular target: T1, BRAG2 (BRAG2^Sec7PH) (Homo sapiens, UniProt Q6DN90); test: Nucleotide exchange kinetics on liposomes, activation of myristoylated Arf1; assay type: biochemical
T1 construct: human BRAG2^Sec7 (390-594) and BRAG2^Sec7PH (390-811); made in house
Protocol: The effect of Bragsin1 on the GEF efficiency of representative human ArfGEFs was evaluated by fluorescence kinetics using highly purified recombinant Arf GTPases and ArfGEFs. In a first series of assays, the Sec7 domains of BIG1, a Golgi ArfGEF, and of ARNO, EFA6a and BRAG2, which function at the plasma membrane, were used. When tested in solution, Bragsin1 had no effect on the activation of Arf1 by any of these Sec7 domains (FIGS. 2a and 14). Separately, we reconstituted the activation of myristoylated Arf1 by the same ArfGEFs on liposomes using ArfGEF constructs that contain a membrane-binding domain (DCB-HUS domain for BIG1, PH domains for the other GEFs). […] BRAG2 activates several Arf isoforms, including the plasma membrane-located Arf6 isoform. […] Bragsin1 and Bragsin2 have the same IC50 towards BRAG2 ([…]) according to dose-response analysis, confirming that Bragsin1 and Bragsin2 can be used interchangeably (FIG. 2d). The specific inhibition of BRAG2 by Bragsin in vitro predicts that BRAG2 silencing by siRNA should yield the same phenotype as treatment by the small molecule. Silencing of BRAG2 induced the redistribution of TGN46 into tubular or punctate structures, which phenocopied the effects induced by Bragsin (FIGS. 2e, 17 and 18). […] Silencing of ARNO, which is located at the plasma membrane, had no effect on TGN46 distribution. Overexpression of BRAG2-mCherry rescued the dispersion of the TGN46 structure induced by Bragsin, which is consistent with the silencing experiments (FIG. 2f). Bragsin is a specific inhibitor of the ArfGEF BRAG2 in vitro and in cells according to these experiments. These oexperiments identify a mechanism of inhibition that requires the membrane to manifests itself.
Bovine Δ17Arf1 and human Δ13Arf6, full-length myristoylated Arf1 and Arf6, human BRAG2^Sec7 (390-594) and BRAG2^Sec7PH (390-811), human EFA6^Sec7 (527-727) and EFA6^Sec7PHCt (527-1024), ARNO^Sec7 (50-256), BIG1^Sec7 (691-889), BIG1^DcbHusSec7 (2-888) and ARNO^Sec7PH (50-399) were expressed and purified as in (Benabdi, S. et al. Family-wide Analysis of the Inhibition of Arf Guanine Nucleotide Exchange Factors with Small Molecules: Evidence of Unique Inhibitory Profiles. Biochemistry 56, 5125-5133 (2017)) and references therein. BRAG2^Sec7PH mutants were purified as the wild type protein. Purification of human full-length Rac1 carrying a 6xHis tag in C-terminus and human TRIO^DH1PH1 (1232-1550) was described in (Peurois, F. et al. Characterization of the activation of small GTPases by their GEFs on membranes using artificial membrane tethering. Biochem J 474, 1259-1272 (2017)).
Lipids (of natural origin) were from Avanti Polar Lipids, except NBD-PE from Sigma. Liposomes were prepared as described in (Aizel, K. et al. Integrated conformational and lipid-sensing regulation of endosomal ArfGEF BRAG2. PLOS Biol 11, e1001652 (2013)) and extruded at 0.2 μm. For the Arf GEF specificity studies, liposomes contained 48% phosphatidylcholine (PC), 20% phosphatidylethanolamine (PE), 30% phosphatidylserine (PS) and 2% phosphatidylinositol-4,5-bisphosphate (PIP2). For Rac activation assay, liposomes contained 43% PC, 20% PE, 10% PS, 20% cholesterol, 2% PIP2, 5% NiNTA lipids and 0.2% NBD-PE. To exclude aggregation or disruption of the liposomes, their size distribution was controlled before and after experiments by dynamic light scattering as described in (Benabdi, S. et al. Biochemistry 56, 5125-5133 (2017)). Dose-response and flotation assays were carried out with liposomes containing 37.9% PC, 20% PE, 20% PS, 2% PIP2, 20% cholesterol and 0.1% NBD-PE. Flotation assays were carried out as in 18.
Nucleotide exchange kinetics were monitored by tryptophan fluorescence with excitation/emission wavelengths of 292/340 nm using a Cary Eclipse fluorimeter (Varian) at 37° C. and under continuous stirring as described in ^50,51. […]

T1 sequence (Q6DN90 512-933): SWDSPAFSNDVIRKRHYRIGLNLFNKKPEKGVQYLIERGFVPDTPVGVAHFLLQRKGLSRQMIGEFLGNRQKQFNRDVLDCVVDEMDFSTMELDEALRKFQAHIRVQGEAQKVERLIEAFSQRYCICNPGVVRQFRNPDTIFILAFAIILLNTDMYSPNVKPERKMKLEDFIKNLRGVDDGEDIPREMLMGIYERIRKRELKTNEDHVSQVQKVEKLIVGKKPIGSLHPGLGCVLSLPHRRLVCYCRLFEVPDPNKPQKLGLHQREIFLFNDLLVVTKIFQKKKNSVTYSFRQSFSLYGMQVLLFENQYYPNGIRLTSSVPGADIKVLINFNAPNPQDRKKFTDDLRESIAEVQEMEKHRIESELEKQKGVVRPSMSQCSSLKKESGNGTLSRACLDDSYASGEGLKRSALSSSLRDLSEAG

| Compound | Dispersion of TGN46 marker [1] | Inhibition of BRAG2 in the presence of liposomes (BRAG2 (BRAG2^Sec7PH); 50 μM compound vs DMSO, myristoylated Arf1, liposomes) | Biological activity of hydrated derivative (BRAG2 (BRAG2^Sec7PH); derivative formed from Bragsin1 in aqueous solution) |
| --- | --- | --- | --- |
| COc1cc(OC)c2oc(C(F)(F)F)cc(=O)c2c1[N+](=O)[O-] [Bragsin3, 6,8-dimethoxy-5-nitro-2-(trifluoromethyl)-4H-chromen-4-one] | disperses | strongly inhibits |  |
| COc1ccc2oc(C(F)(F)F)cc(=O)c2c1 [Compound 3, 6-methoxy-2-(trifluoromethyl)-4H-chromen-4-one] | not capable to disperse |  |  |
| COc1ccc2oc(C(F)(F)F)cc(=O)c2c1C=O [Compound 5, 6-methoxy-4-oxo-2-(trifluoromethyl)-4H-chromene-5-carbaldehyde] | less effect |  |  |
| COc1ccc2oc(C(F)(F)F)cc(=O)c2c1C(=O)O [Compound 6, 6-methoxy-4-oxo-2-(trifluoromethyl)-4H-chromene-5-carboxylic acid] | not capable to disperse |  |  |
| Cc1ccc2c(c1[N+](=O)[O-])C(=O)CC(O)(C(F)(F)F)O2 (stereo not drawn) [Compound 13, 2-hydroxy-6-methyl-5-nitro-2-(trifluoromethyl)chroman-4-one] |  |  | biologically inactive |
